Assay results taken from publication PMC11678797, “A Repurposed Drug Selection Pipeline to Identify CNS-Penetrant Drug Candidates for Glioblastoma” (Pharmaceuticals, 2024).
Read-outs that look alike come from different tables or passages of the source.

How the values were obtained:
[1] = system: GS832 glioblastoma patient-derived cell culture; test: In vitro drug screening, cell viability by CellTiter GLO 2.0 after 5 days; type: cell-based; details: Homo sapiens, 120 h, 5 days incubation
Experimental: Glioblastoma stem-like cell cultures (GSC) were derived from primary brain tumor samples received directly from the operating room. Tumor classification was performed by the local neuropathologist according to guidelines of the WHO 2007 and 2016 classification of primary brain tumors. The use of patient tissue for this study was approved by the local ethics committee and all patients signed informed consent forms according to the guidelines of the Institutional Review Board. Samples were processed as described previously. The GBM8 cell line was kindly provided by dr. Hiroaki Wakimoto (Massachusetts General Hospital, Boston, MA, USA). All cell cultures were grown in Dulbecco’s modified Eagle’s medium (DMEM)–F12 with 1% penicillin/streptomycin, B27 (Invitrogen), human epidermal growth factor (EGF; 5 μg/mL), human basic fibroblast growth factor (FGF; 5 μg/mL) (both from Tebu-Bio) and heparin ([…]; Sigma-Aldrich, St. Louis, MI, USA).
Glioma stem-like cell cultures were cultured under serum free conditions according to Verheul et al.. Cells were seeded in 96-well plates (Greiner bio-one, Kremsmünster, Austria) coated with extracellular matrix (BD Bioscience, Becton Drive Franklin Lakes, NJ, USA) at 1000 cells/well. A stock solution of OMA was diluted in a serum-free cell culture medium to obtain a starting concentration of 8 μM in 0.1% DMSO. Serial dilutions of OMA and DMSO were added to the wells 24 h later for an incubation period of 5 days. Cell viability was measured by the CellTiter GLO 2.0 and dose–response curves and IC50 values were calculated using GraphPad Prism version 9. All experiments were performed in 3 biological replicates.
GraphPad Prism software version 9.5 (GraphPad Software) was used for calculating IC50 values using nonlinear regression (curve-fit). GraphPad Prism was used to determine whether there was a statistically significant difference in OMA concentration and the B/P ratio between the L and R hemispheres of mice bearing GS832, GS607 and GBM8 tumors, using an unpaired t-test. […]

[2] = Pharmacokinetics of omacetaxine in orthotopic glioblastoma PDX and naïve NOD/SCID mice (LC-MS/MS of plasma, brain, liver); type: in vivo, mouse; details: for [Brain] ± SD, right hemisphere (tumor bearing) / [Liver] ± SD / [Plasma] ± SD / [Brain]/[Plasma] Ratio ± SD / concentration at 60 min: 1.5 mg/kg; for concentration at 60 min: female, NOD/SCID, mouse, sc
Experimental: An amount of 10 μL medium samples was vortex-mixed with 30 μL of acetonitrile: formic acid (100:1 v/v) containing 100 nM RO-3306 Internal Standard). After centrifugation, the supernatant was 5-fold diluted in water. OMA concentrations were measured using an LC-MS/MS system that consisted of an UltiMate 3000 LC System (Dionex, Sunnyvale, CA, USA) and an API 4000 mass spectrometer (Sciex, Framingham, MA, USA). Samples were analyzed using a ZORBAX Extend-C18 column (Agilent, Santa Clara, CA, USA), preceded by a Security-guard C18 pre-column (Phenomenex, Utrecht, The Netherlands). Elution was performed using a mixture of mobile phase A (0.1% formic acid in water (v/v)) and mobile phase B (methanol) in a 5 min gradient from 20% to 95% B, followed by 95% B that was maintained for 3 min and then re-equilibrated at 20% B. Multiple reaction monitoring parameters were 546.6/298.1 (OMA) and 352.1/186.0 (RO-3306).
Non-obese diabetic severe combined immunodeficient (NOD/SCID) female mice 6–8 weeks of age were used for this study. All experiments were ethically approved by the local Animal Experiments Committee. Patient-derived glioblastoma cell lines were cultured under serum-free conditions prior to injection into the mice. Mice were stereotactically injected with GS607, GS832 (both 2.5 × 10^5 in 5 μL) or GBM8 (1 × 10^5 in 3 μL) in the right striatum 1.0 mm anteroposterior (AP), 2.0 mm medio lateral (ML) and −2.5 mm dorsal ventral (DV) of bregma suture under aseptic conditions. Mice were monitored daily for signs of persistent abnormal behavior and/or breathing, weight loss >20% and development of neurological symptoms such as convulsions, seizures and/or hemiparesis. Mice were euthanized and the mouse brains harvested for histological and LC/MS/MS analysis.
A single dose of 1.5 mg/kg of OMA was administered s.c. to glioblastoma-bearing NOD/SCID and naïve non-tumor-bearing mice. Mice received OMA prior to the timepoint drug delivery experiment, ensuring the presence of significant tumor masses. For GS607, this was at 78 days; for GS832 at 90 days; and for GBM8 at 46 days post-tumor implantation, based on previous survival experiments. Blood samples were collected at 15 min, 30 min, 60 min, 120 min and 240 min via the tail vein and/or submandibular vein and placed in EDTA tubes. Mice were euthanized at 60 min, 120 min or 240 min with cervical dislocation. Brains and livers were surgically collected and snap-frozen in liquid nitrogen (N2). To preserve the drug stability in plasma mouse blood, samples were centrifuged immediately upon collection. Plasma was separated by centrifugation at 3500 rpm at 4 °C for 15 min. Both plasma and tissue samples were stored at −80 °C until LC-MS/MS analysis.

[3] = GBM8 PDX, 60 min, single s.c. dose 1.5 mg/kg, n = 6
[4] = GS607-PDX, 60 min, single s.c. dose 1.5 mg/kg, n = 2 blood samples
[5] = GS607-PDX, 60 min, single s.c. dose 1.5 mg/kg, n = 4
[6] = GS832-PDX, 60 min, single s.c. dose 1.5 mg/kg, n = 5
[7] = GS832-PDX, single s.c. dose 1.5 mg/kg

COC(=O)C[C@](O)(CCCC(C)(C)O)C(=O)O[C@@H]1C(OC)=C[C@]23CCCN2CCc2cc4c(cc2[C@H]13)OCO4 [OMA, Omacetaxine mepesuccinate]
IC50 [1]: 4.9 nM
[Brain] ± SD, right hemisphere (tumor bearing) [2, 3]: 45.0 ± 20.0 ng/g
[Liver] ± SD [2, 3]: 998.2 ± 254.3 ng/g
[Plasma] ± SD [2, 3]: 391.3 ± 57.5 ng/mL
[Brain]/[Plasma] Ratio ± SD ([2]; GBM8 PDX, 60 min, single s.c. dose 1.5 mg/kg): 0.11 ± 0.04
[Brain]/[Plasma] Ratio ± SD [2, 4]: 0.23 ± 0.01
[Plasma] ± SD [2, 4]: 88.4 ± 9.0 ng/mL
[Brain] ± SD, right hemisphere (tumor bearing) [2, 5]: 20.7 ± 5.05 ng/g
[Liver] ± SD [2, 5]: 1653.4 ± 163.6 ng/g
[Plasma] ± SD ([2]; GS832-PDX NOD/SCID mice, single s.c. dose 1.5 mg/kg, 15 min (Table 1)): 396.3 ± 58.7 ng/mL
[Plasma] ± SD ([2]; GS832-PDX NOD/SCID mice, single s.c. dose 1.5 mg/kg, 60 min (Table 1, n = 9)): 165.7 ± 28.7 ng/mL
[Plasma] ± SD ([2]; GS832-PDX NOD/SCID mice, single s.c. dose 1.5 mg/kg, 240 min (Table 1)): 23.9 ± 2.86 ng/mL
[Brain] ± SD, right hemisphere (tumor bearing) [2, 6]: 18.0 ± 6.3 ng/g
[Liver] ± SD [2, 6]: 680.0 ± 155.9 ng/g
[Brain]/[Plasma] Ratio ± SD ([2]; GS832-PDX, 60 min, single s.c. dose 1.5 mg/kg): 0.10 ± 0.05
[Liver] ± SD ([2]; GS832-PDX, 240 min, single s.c. dose 1.5 mg/kg, n = 5): 190.1 ± 47.8 ng/g
[Brain]/[Plasma] Ratio ± SD ([2]; GS832-PDX, 240 min, single s.c. dose 1.5 mg/kg): 0.50 ± 0.33
brain total mean concentration lower than in the liver [2, 7]: approximately 40 fold
concentrations in tumor-bearing hemisphere versus contralateral hemisphere [2, 7]: not significantly different
reduction in plasma concentration from peak (15 min) by 4 h ([2]; GS832 tumor-bearing mice, single s.c. dose 1.5 mg/kg): 17 fold
OMA concentrations in tumor-bearing versus contralateral hemispheres ([2]; any of the tested models (GS832, GS607, GBM8)): did not detect a significant difference
concentration at 60 min ([2]; brain tumor, GBM8 PDX, 60 min, single s.c. dose 1.5 mg/kg, read-out: measured brain tumor concentration expressed): 82.5 nM
concentration at 60 min ([2]; brain tumor, GS607-PDX, 60 min, single s.c. dose 1.5 mg/kg, read-out: measured brain tumor concentration expressed): 37.9 nM
concentration at 60 min ([2]; brain tumor, GS832-PDX, 60 min, single s.c. dose 1.5 mg/kg, read-out: measured brain tumor concentration expressed): 33 nM
concentration at 60 min ([2]; brain, right hemisphere (non-tumor-bearing), naïve non-tumor-bearing mice, 60 min, single s.c. dose 1.5 mg/kg, n = 2, read-out: [Brain] ± SD, right hemisphere (non-tumor-bearing)): 16.4 ± 2.9 ng/g
concentration at 60 min ([2]; brain, right hemisphere (tumor bearing), GBM8 PDX, 60 min, single s.c. dose 1.5 mg/kg, n = 6, read-out: [Brain] ± SD, right hemisphere (tumor bearing)): 45 ± 20 ng/g
concentration at 60 min ([2]; brain, right hemisphere (tumor bearing), GS607-PDX, 60 min, single s.c. dose 1.5 mg/kg, n = 4, read-out: [Brain] ± SD, right hemisphere (tumor bearing)): 21 ± 5 ng/g
concentration at 60 min ([2]; brain, right hemisphere (tumor bearing), GS832-PDX, 60 min, single s.c. dose 1.5 mg/kg, n = 5, read-out: [Brain] ± SD, right hemisphere (tumor bearing)): 18 ± 6 ng/g
